Test results reported in PubChem BioAssay AID2060901 (Molecular Pharmacology Branch, DTP, NCI, 2025).

System: 422866-222-R5-J1-PDC complex spheroids viability
Assay: Anticancer human tumor 422866-222-R5-J1-PDC patient-derived pancreatic adenocarcinoma cell line growth inhibition [RAS]
Settings: for IC50: curve of first compound; for viability, T/C: stronger effect = lower value
How it was run: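 Agents were tested in combination matrices in half-log decrements from a top concentration at or near clinical Cmax (10 microM if undetermined). Targets were multi-cell spheroids of tumour lines plus HUVEC and MSC stromal cells.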

[1] = second compound 0.000949 µM, first compound 0.000949 µM
[2] = second compound 0.000949 µM, first compound 0.003 µM
[3] = second compound 0.000949 µM, first compound 0.00949 µM
[4] = second compound 0.000949 µM, first compound 0.03 µM
[5] = second compound 0.000949 µM, first compound 0.0949 µM
[6] = second compound 0.000949 µM, first compound 0.3 µM
[7] = second compound 0.003 µM, first compound 0.000949 µM
[8] = second compound 0.003 µM, first compound 0.003 µM
[9] = second compound 0.003 µM, first compound 0.00949 µM
[10] = second compound 0.003 µM, first compound 0.03 µM
[11] = second compound 0.003 µM, first compound 0.0949 µM
[12] = second compound 0.003 µM, first compound 0.3 µM
[13] = second compound 0.00949 µM, first compound 0.000949 µM
[14] = second compound 0.00949 µM, first compound 0.003 µM
[15] = second compound 0.00949 µM, first compound 0.00949 µM
[16] = second compound 0.00949 µM, first compound 0.03 µM
[17] = second compound 0.00949 µM, first compound 0.0949 µM
[18] = second compound 0.00949 µM, first compound 0.3 µM
[19] = second compound 0.03 µM, first compound 0.000949 µM
[20] = second compound 0.03 µM, first compound 0.003 µM
[21] = second compound 0.03 µM, first compound 0.00949 µM
[22] = second compound 0.03 µM, first compound 0.03 µM
[23] = second compound 0.03 µM, first compound 0.0949 µM
[24] = second compound 0.03 µM, first compound 0.3 µM
[25] = second compound 0.0949 µM, first compound 0.000949 µM
[26] = second compound 0.0949 µM, first compound 0.003 µM
[27] = second compound 0.0949 µM, first compound 0.00949 µM
[28] = second compound 0.0949 µM, first compound 0.03 µM
[29] = second compound 0.0949 µM, first compound 0.0949 µM
[30] = second compound 0.0949 µM, first compound 0.3 µM
[31] = second compound 0.3 µM, first compound 0.000949 µM
[32] = second compound 0.3 µM, first compound 0.003 µM
[33] = second compound 0.3 µM, first compound 0.00949 µM
[34] = second compound 0.3 µM, first compound 0.03 µM
[35] = second compound 0.3 µM, first compound 0.0949 µM
[36] = second compound 0.3 µM, first compound 0.3 µM
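Note: spheroids exposed to compounds for 7 days.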
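Throughout, for viability, T/C: 100% = DMSO vehicle control viability.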

SMILES: CCc1c2c(nc3ccc(O)cc13)-c1cc3c(c(=O)n1C2)COC(=O)[C@]3(O)CC + C=CC(=O)N1CCN(c2nc(OCC3CCCN3C)nc3c(F)c(-c4nc(N)cc(C)c4C(F)(F)F)c(Cl)cc23)C(C)C1
- IC50 (second compound 0.00316 µM): < 0.949 nM
- IC50 (second compound 0.01 µM): < 0.949 nM
- IC50 (second compound 0.0316 µM): < 0.949 nM
- IC50 (second compound 0.1 µM): < 0.949 nM
- IC50 (second compound 0.316 µM): < 0.949 nM
- IC50 (second compound 1 µM): < 0.949 nM
- viability, T/C (second compound 0.00316 µM, first compound 0.000949 µM): 25.3%
- viability, T/C (second compound 0.00316 µM, first compound 0.003 µM): 21.1%
- viability, T/C (second compound 0.00316 µM, first compound 0.00949 µM): 15.8%
- viability, T/C (second compound 0.00316 µM, first compound 0.03 µM): 15.9%
- viability, T/C (second compound 0.00316 µM, first compound 0.0949 µM): 15.2%
- viability, T/C (second compound 0.00316 µM, first compound 0.3 µM): 11.3%
- viability, T/C (second compound 0.01 µM, first compound 0.000949 µM): 24.9%
- viability, T/C (second compound 0.01 µM, first compound 0.003 µM): 20.7%
- viability, T/C (second compound 0.01 µM, first compound 0.00949 µM): 18.1%
- viability, T/C (second compound 0.01 µM, first compound 0.03 µM): 18.3%
- viability, T/C (second compound 0.01 µM, first compound 0.0949 µM): 12.9%
- viability, T/C (second compound 0.01 µM, first compound 0.3 µM): 10.9%
- viability, T/C (second compound 0.0316 µM, first compound 0.000949 µM): 25.3%
- viability, T/C (second compound 0.0316 µM, first compound 0.003 µM): 18.3%
- viability, T/C (second compound 0.0316 µM, first compound 0.00949 µM): 16.8%
- viability, T/C (second compound 0.0316 µM, first compound 0.03 µM): 14.8%
- viability, T/C (second compound 0.0316 µM, first compound 0.0949 µM): 15.4%
- viability, T/C (second compound 0.0316 µM, first compound 0.3 µM): 15.6%
- viability, T/C (second compound 0.1 µM, first compound 0.000949 µM): 21.8%
- viability, T/C (second compound 0.1 µM, first compound 0.003 µM): 15.9%
- viability, T/C (second compound 0.1 µM, first compound 0.00949 µM): 15.4%
- viability, T/C (second compound 0.1 µM, first compound 0.03 µM): 16.2%
- viability, T/C (second compound 0.1 µM, first compound 0.0949 µM): 14.6%
- viability, T/C (second compound 0.1 µM, first compound 0.3 µM): 10.9%
- viability, T/C (second compound 0.316 µM, first compound 0.000949 µM): 19.1%
- viability, T/C (second compound 0.316 µM, first compound 0.003 µM): 17.5%
- viability, T/C (second compound 0.316 µM, first compound 0.00949 µM): 15.6%
- viability, T/C (second compound 0.316 µM, first compound 0.03 µM): 14.2%
- viability, T/C (second compound 0.316 µM, first compound 0.0949 µM): 12.8%
- viability, T/C (second compound 0.316 µM, first compound 0.3 µM): 12.3%
- viability, T/C (second compound 1 µM, first compound 0.000949 µM): 17%
- viability, T/C (second compound 1 µM, first compound 0.003 µM): 16%
- viability, T/C (second compound 1 µM, first compound 0.00949 µM): 17.1%
- viability, T/C (second compound 1 µM, first compound 0.03 µM): 14%
- viability, T/C (second compound 1 µM, first compound 0.0949 µM): 14.4%
- viability, T/C (second compound 1 µM, first compound 0.3 µM): 13.1%

SMILES: CC1(C)CCC(Nc2ncc(C(F)(F)F)c(-c3c[nH]c4c(P(C)(C)=O)c(C#N)ccc34)n2)CN1 (stereo unspecified) + CCn1c(-c2cc(N3CCN(C)CC3)cnc2C(C)OC)c2c3cc(ccc31)-c1csc(n1)CC(NC(=O)C1CC1C)C(=O)N1CCCC(N1)C(=O)OCC(C)(C)C2
- IC50 (second compound 0.000949 µM): < 0.949 nM
- IC50 (second compound 0.003 µM): < 0.949 nM
- IC50 (second compound 0.00949 µM): < 0.949 nM
- IC50 (second compound 0.03 µM): < 0.949 nM
- IC50 (second compound 0.0949 µM): < 0.949 nM
- IC50 (second compound 0.3 µM): < 0.949 nM
- viability, T/C [1]: 30.6%
- viability, T/C [2]: 29.6%
- viability, T/C [3]: 32.5%
- viability, T/C [4]: 31.7%
- viability, T/C [5]: 30%
- viability, T/C [6]: 33.4%
- viability, T/C [7]: 24.3%
- viability, T/C [8]: 24%
- viability, T/C [9]: 27.2%
- viability, T/C [10]: 27.5%
- viability, T/C [11]: 26.9%
- viability, T/C [12]: 31.3%
- viability, T/C [13]: 21.2%
- viability, T/C [14]: 21.1%
- viability, T/C [15]: 23.1%
- viability, T/C [16]: 21.6%
- viability, T/C [17]: 25.4%
- viability, T/C [18]: 24.8%
- viability, T/C [19]: 22.2%
- viability, T/C [20]: 21.2%
- viability, T/C [21]: 25.4%
- viability, T/C [22]: 23.5%
- viability, T/C [23]: 25%
- viability, T/C [24]: 22.8%
- viability, T/C [25]: 19.1%
- viability, T/C [26]: 22.9%
- viability, T/C [27]: 24.6%
- viability, T/C [28]: 20.7%
- viability, T/C [29]: 23.1%
- viability, T/C [30]: 28.9%
- viability, T/C [31]: 19.7%
- viability, T/C [32]: 22.6%
- viability, T/C [33]: 26.8%
- viability, T/C [34]: 24.1%
- viability, T/C [35]: 28.1%
- viability, T/C [36]: 28.1%

SMILES: CC1(C)CCC(Nc2ncc(C(F)(F)F)c(-c3c[nH]c4c(P(C)(C)=O)c(C#N)ccc34)n2)CN1 (stereo unspecified) + CCn1c(-c2cccnc2C(C)OC)c2c3cc(ccc31)N1CCOC(CC(NC(=O)C(C(C)C)N(C)C(=O)C3(F)CCN(C(=O)C#CC(C)(C)N(C)C)CC3)C(=O)N3CCCC(N3)C(=O)OCC(C)(C)C2)C1
- IC50 (second compound 0.000949 µM): < 0.949 nM
- IC50 (second compound 0.003 µM): < 0.949 nM
- IC50 (second compound 0.00949 µM): < 0.949 nM
- IC50 (second compound 0.03 µM): < 0.949 nM
- IC50 (second compound 0.0949 µM): < 0.949 nM
- IC50 (second compound 0.3 µM): < 0.949 nM
- viability, T/C [1]: 27.9%
- viability, T/C [2]: 27%
- viability, T/C [3]: 30.9%
- viability, T/C [4]: 31.1%
- viability, T/C [5]: 31%
- viability, T/C [6]: 32.6%
- viability, T/C [7]: 25.2%
- viability, T/C [8]: 27%
- viability, T/C [9]: 27.6%
- viability, T/C [10]: 24.8%
- viability, T/C [11]: 28.6%
- viability, T/C [12]: 26.9%
- viability, T/C [13]: 24.1%
- viability, T/C [14]: 24.4%
- viability, T/C [15]: 26.1%
- viability, T/C [16]: 26.2%
- viability, T/C [17]: 26.1%
- viability, T/C [18]: 27.2%
- viability, T/C [19]: 24.2%
- viability, T/C [20]: 25.8%
- viability, T/C [21]: 24.2%
- viability, T/C [22]: 26.3%
- viability, T/C [23]: 28.2%
- viability, T/C [24]: 28.5%
- viability, T/C [25]: 20.1%
- viability, T/C [26]: 22.7%
- viability, T/C [27]: 25.4%
- viability, T/C [28]: 23.6%
- viability, T/C [29]: 26.7%
- viability, T/C [30]: 25.6%
- viability, T/C [31]: 20%
- viability, T/C [32]: 22.8%
- viability, T/C [33]: 24.2%
- viability, T/C [34]: 24.8%
- viability, T/C [35]: 28.1%
- viability, T/C [36]: 24.6%
